# Earlier results in patent publication US8148390B2, “Monocyclic anilide spirolactam CGRP receptor antagonists” (Merck, Sharp & Dohme, Corp., priority 2007, dated 2012).
# Like-named read-outs stand apart in the source and are kept apart here. Ends that are not written are not given here.
# Experiments:
# middle meningeal artery = settings: rats, electrical stimulation of the dura mater, prior administration (Williamson et al. 1997)
# facial blood flow [1] = settings: rat, trigeminal ganglion stimulation (Escott et al. 1995)
# [2] = system: acute attacks of migraine; settings: clinical trials (Olesen et al. 2004)
# [3] = system: headache induced by CGRP infusion; settings: control group (Petersen et al. 2005)
# facial blood flow [4] = settings: marmoset, electrical stimulation of the trigeminal ganglion (Doods et al. 2000)
Compound,effect on increase of middle meningeal artery diameter (middle meningeal artery),effect on increase of facial blood flow (facial blood flow [1]),efficacy in treating acute attacks of migraine [2],prevention of headache induced by CGRP infusion [3],effect on increase of facial blood flow (facial blood flow [4])
"CGRP(8-37): a peptide CGRP antagonist; fragment of CGRP that lacks seven N-terminal amino acid residues (VTHRLAGLLSRSGGVVKNNFVPTNVGSKAF; ends and bridges not checked; UniProt P06881 90-119, looked up, fragment)",blocked,inhibited,,,
NCCCC[C@H](NC(=O)[C@@H](Cc1cc(Br)c(O)c(Br)c1)NC(=O)N1CCC(N2Cc3ccccc3NC2=O)CC1)C(=O)N1CCN(c2ccncc2)CC1 [BIBN4096BS],,,effective in treating acute attacks of migraine,able to prevent headache induced by CGRP infusion,could be blocked
